# Where two headings read alike, the source gives them in different places.
# Legend:
# Format in all cases: physicochemical
# [1] = Dynamic vapour sorption (sorption isotherms, water uptake); conditions: for hygroscopic behavior: uptake of water: 25° C.
# Source text: Sorption isotherms were generated using an IGAsorp water sorption monitor from Hiden Isochema. […] For BR salt form only: Sorption isotherms were registered on a DVS-1 water sorption monitor from Surface Measurement Systems.
# [2] = X-ray powder diffraction: crystallinity and polymorphism; conditions: for indications for polymorphism: several crystallization experiments
# Source text: X-ray powder diagrams were generated using a STOE-STADI P-diffractometer in transmission mode fitted with a MYTHEN-detector and a Cu-anode as X-ray source with monochromatic CuKα1 radiation (λ=1.54056 Å, 40 kV, 40 mA).
# [3] = ThermoGravimetry (loss on drying); conditions: TG
# Source text: Thermal gravimetry data were collected with a TG instrument from the Q-series of TA Instruments. This method measures weight changes in a material as a function of temperature under a controlled atmosphere.
smiles,measurement,setting,value
"Br.CO[C@H]1COCC[C@H]1NC1CCN(C(=O)c2ncnc(NC[C@H]3CCC[C@@H](c4ccc(C)cc4)O3)c2C)CC1 [hydrobromide salt of compound I, (4-((3R,4R)-3-methoxytetrahydro-pyran-4-ylamino)piperidin-1-yl)(5-methyl-6-(((2R,6S)-6-(p-tolyl)tetrahydro-2H-pyran-2-yl)methylamino)pyrimidin-4-yl)methanone hydrobromide]",hygroscopic behavior: uptake of water,"[1]; up to 80% r.h. (humidity range 10-80%), hydrobromide",4.5%
same,hygroscopic behavior: uptake of water,"[1]; up to 80% r.h. (humidity range 10-80%), listed as Hydrobromide Salt, hydrobromide",4.5%
same,hygroscopic behavior: deliquescence,"[1]; up to 80% r.h., listed as Hydrobromide Salt, hydrobromide",deli-
same,hygroscopic behavior: deliquescence,"[1]; up to 80% r.h., listed as hydrobromide, hydrobromide",irreversibly deliquescent
same,hygroscopic behavior: deliquescence,[1]; up to 90% r.h.,deli-
same,hygroscopic behavior: uptake of water,[1]; up to 90% r.h.,20%
same,crystallinity,[2]; hydrobromide,medium
same,crystallinity,"[2]; listed as hydrobromide salt of compound of formula (I), hydrobromide",medium crystallinity
same,indications for polymorphism,"[2]; listed as Hydrobromide Salt, hydrobromide",Yes
same,indications for polymorphism,"[2]; listed as hydrobromide, hydrobromide",Different polymorphic modifications
same,loss on drying,[3],2.9%
"CO[C@H]1COCC[C@H]1NC1CCN(C(=O)c2ncnc(NC[C@H]3CCC[C@@H](c4ccc(C)cc4)O3)c2C)CC1.CS(=O)(=O)O [methanesulfonate salt of compound I, (4-((3R,4R)-3-methoxytetrahydro-pyran-4-ylamino)piperidin-1-yl)(5-methyl-6-(((2R,6S)-6-(p-tolyl)tetrahydro-2H-pyran-2-yl)methylamino)pyrimidin-4-yl)methanone methanesulfonate]",hygroscopic behavior: deliquescence,[1]; up to 80% r.h.,irreversibly deliquescent
same,hygroscopic behavior: uptake of water,"[1]; up to 80% r.h. (humidity range 10-80%), listed as Methanesulfonate Salt, methanesulfonate",30%
same,hygroscopic behavior: uptake of water,"[1]; up to 80% r.h. (humidity range 10-80%), methanesulfonate",30%
same,hygroscopic behavior: uptake of water,[1]; up to 90% r.h.,45%
same,crystallinity,"[2]; listed as methanesulfonate salt of compound of formula (I), methanesulfonate",medium crystallinity
same,crystallinity,[2]; methanesulfonate,Medium
same,indications for polymorphism,"[2]; listed as Methanesulfonate Salt, methanesulfonate",No
same,indications for polymorphism,"[2]; listed as methanesulfonate, methanesulfonate",only one polymorphic form
"CO[C@H]1COCC[C@H]1NC1CCN(C(=O)c2ncnc(NC[C@H]3CCC[C@@H](c4ccc(C)cc4)O3)c2C)CC1.Cl [hydrochloride salt of compound I, (4-((3R,4R)-3-methoxytetrahydro-pyran-4-ylamino)piperidin-1-yl)(5-methyl-6-(((2R,6S)-6-(p-tolyl)tetrahydro-2H-pyran-2-yl)methylamino)pyrimidin-4-yl)methanone hydrochloride]",hygroscopic behavior: uptake of water,"[1]; up to 80% r.h. (humidity range 10-80%), hydrochloride",15%
same,hygroscopic behavior: uptake of water,"[1]; up to 80% r.h. (humidity range 10-80%), listed as Hydrochloride Salt, hydrochloride",15% uptake
same,hygroscopic behavior: deliquescence,"[1]; up to 80% r.h., listed as Hydrochloride Salt, hydrochloride",deliquescent
same,hygroscopic behavior: deliquescence,"[1]; up to 80% r.h., listed as hydrochloride, hydrochloride",irreversibly deliquescent
same,hygroscopic behavior: deliquescence,[1]; up to 90% r.h.,deliquescent
same,hygroscopic behavior: uptake of water,[1]; up to 90% r.h.,40% uptake
same,crystallinity,[2]; hydrochloride,medium
same,crystallinity,"[2]; listed as hydrochloride salt of compound of formula (I), hydrochloride",medium crystallinity
same,indications for polymorphism,"[2]; listed as Hydrochloride Salt, hydrochloride",yes
same,indications for polymorphism,"[2]; listed as hydrochloride, hydrochloride",Different polymorphic modifications
same,loss on drying,[3],2.8%
"CCS(=O)(=O)O.CO[C@H]1COCC[C@H]1NC1CCN(C(=O)c2ncnc(NC[C@H]3CCC[C@@H](c4ccc(C)cc4)O3)c2C)CC1 [esilate salt of compound I, (4-((3R,4R)-3-methoxytetrahydro-pyran-4-ylamino)piperidin-1-yl)(5-methyl-6-(((2R,6S)-6-(p-tolyl)tetrahydro-2H-pyran-2-yl)methylamino)pyrimidin-4-yl)methanone esilate]",hygroscopic behavior: uptake of water,[1]; up to 80% r.h. (humidity range 10-80%),20%
same,hygroscopic behavior: uptake of water,"[1]; up to 80% r.h. (humidity range 10-80%), listed as Esilate Salt",20% uptake
same,hygroscopic behavior: deliquescence,"[1]; up to 80% r.h., listed as Esilate Salt",deliquescent
same,hygroscopic behavior: deliquescence,"[1]; up to 80% r.h., listed as esilate",irreversibly deliquescent
same,hygroscopic behavior: deliquescence,[1]; up to 90% r.h.,deliquescent
same,hygroscopic behavior: uptake of water,[1]; up to 90% r.h.,45% uptake
same,crystallinity,[2],high
same,crystallinity,[2]; listed as esilate salt of compound of formula (I),high crystallinity
same,indications for polymorphism,[2]; listed as Esilate Salt,no
same,indications for polymorphism,[2]; listed as esilate,only one polymorphic form
same,loss on drying,[3],2.4%

# Reference: patent publication US10213428B2, “(4-((3R,4R)-3-methoxytetrahydro-pyran-4-ylamino)piperidin-1-yl)(5-methyl-6-(((2R,6S)-6-(p-tolyl)tetrahydro-2H-pyran-2-yl)methylamino)pyrimidin-4-yl)methanone citrate” (Centrexion Therapeutics Corporation, priority 2015, dated 2019)
